Experimental data taken from patent US20090105149A1, “Compounds comprising lpa” (ENKAM PHARMACEUTICALS A/S, priority 2003, published 2009).

How the values were obtained:
[1] = tested on: FGL-induced survival of CGN; test: Effect of inhibitors of FGFR, MEK and PI3K on FGL-induced survival of CGN; format: cell-based, rat; conditions: 10 μg/ml FGLd, low KCl
Experimental: Thereafter the MEK inhibitor PD98059 ([…]), PI3K inhibitor LY294002 (▴) and FGFR inhibitor SU5402 (▪) were added at various concentrations. The addition of the inhibitors followed in all cases by the addition of 10 μg/ml FGLd. […] Results from at least four individual experiments are shown as percentage of the number of live neurons relative to the total number of neurons ±SEM, with control cultures treated with FGLd set at 100%.

hippocampal neurons [2] = test: FM 1-43 destaining (presynaptic vesicle turnover) in hippocampal neurons; format: cell-based, rat; conditions: added simultaneously with FGLd
Experimental: The values were compared using an unpaired t-test. *p=0.04 (1 h) and **p=0.0032 (48 h). FGLcontrol is a control peptide consisting the sequence […] (SEQ ID NO: 147).
The effects of FGLd on vesicle turnover was estimated in primary cultures of hippocampal neurons from embryonic rats (E19). The cultures were prepared as above. Following 13-16 days in vitro, FGLd was added to the cultures and incubated for 1, 24 or 48 hours. After 48 hours of incubation, the FGFR-inhibitor (SU 5402) was added simultaneously with FGLd to some of the cultures.
After treatment with FGLd the neurons were labeled with the fluorescent membrane probe FM 1-43 as described by Kiryushko et al (2003) J Biol. Chem. 278:12325-34. The rate of FM 1-43 release (destaining of cells) evoked by depolarisation with 90 mM potassium was then evaluated by a time-lapse image acquisition using the Radiance 2000 scanning system and a Nikon eclipse TE200 confocal microscopy.

[3] = tested on: FGL-induced neurite outgrowth in CGN cultures; test: Effect of inhibitors of FGFR, MEK and PI3K on FGL-induced neurite outgrowth in CGN; format: cell-based, rat; conditions: for FGLd-induced neurite outgrowth in CGN in presence of inhibitor: FGLd-treated control = 100%
Experimental: CGN cultures were grown for 24 hours at a density of 10,000 cells/cm^2 on 8-well permanox slides in the presence of the FGL peptide and an inhibitor. PD98059 ([…]) was added at concentrations of 12.5, 25 and 50 μM simultaneously with 10 μg/ml FGLd; LY294002 (▴) was added at concentrations of 3.5, 7 and 10 μM simultaneously with 27 μg/ml FGLd. SU5402 (▪) was added in concentrations of 20, 40 and 80 μM simultaneously with 27 μg/ml FGLd. After the treatment cells were fixed and immunostained for GAP-43. Results from at least four independent experiments are shown as percentage ±SEM, with FGLd-treated control cultures set at 100%. The dashed line indicates the average neurite length in cultures without FGLd-treatment. *p<0.05, **p<0.01 when compared to the FGLd-treated controls.
(§1) Peptide solutions without or with inhibitors of various signal transduction pathways were added to a total volume of 300 μl/cm^2, and the slides were incubated at 37° C. After 24 hours, the neurons were fixed with 4% (v/v) formaldehyde for 20 minutes and thereafter immunostained using primary rabbit antibodies against GAP-43 and Alexa Fluor secondary goat anti-rabbit antibodies. Images of at least 200 neurons for each group in each individual experiment were obtained systematically by using computer assisted fluorescence microscopy as previously described (Rønn et al., 2000 op. cit.). Briefly, a Nikon Diaphot inverted microscope with a Nikon Plan 20× objective (Nikon, Tokyo, Japan) coupled to a video camera (Grundig Electronics, Germany) was used for recordings. The same software package as described above for the dopaminergic neurite outgrowth assay was used to process the recorded images.

hippocampal neurons [4] = test: Neurite outgrowth, hippocampal neurons; format: cell-based, rat
Experimental: The cultures were subsequently immunostained for tyrosine hydroxylase. Hippocampal neurons and CGN were plated at a density of 10,000 cells/cm^2 on 8-well permanox chamber slides and incubated for 24 hours in the presence of various concentrations of FGLd. Subsequently the neurons were immunostained for GAP-43. Results from at least five independent experiments for each neuronal culture are shown as percentage ±SEM with the untreated controls set at 100%. *p<0.05, **p<0.01, ***p<0.001 when compared to the controls.
Results from at least four independent experiments are shown as percentage SEM with untreated controls set at 100%. **p<0.01 when compared to the controls.
as §1

[5] = tested on: dissociated hippocampal neurons; test: OGD, metabolic activity (MTS) in dissociated hippocampal cell cultures; format: cell-based, rat; conditions: inhibitor 25 μM together with FGLd for 24 hours before OGD
Source text: (§2) In the present study it was investigated the effect of the FGL peptide on synaptic plasticity, neuronal function and vulnerability following oxygen and glucose deprivation (OGD) in organotypic hippocampal neuronal slice cultures (OHSC) from 7-day-old Wistar rats according to method of Stoppini et al. (1991) Neurosci Methods. 37:173-82 and primary cultures of dissociated hippocampal neurons from 1-day-old rats according to method of Maar et al. (1997) J Neurosci Res. 47:163-72. Primary cell cultures were maintained for 11-12 days and OHSC for 12-14 days prior to adding FGLd.
(§3) The primary cell cultures and OHSC were exposed to OGD for 10 and 20 minutes. Following OGD, the cultures were again supplied with oxygen and glucose and analysed at 1, 4 or 24 hour time point after introduction of OGD exposure. FGLd (or the control peptide FGLc) was added 24 hr before, immediately, or 1 hr or 24 hr after OGD. When administered prior to OGD, FGLd was removed from the medium when introducing OGD. In some cases, the slice cultures were treated with FGLd only at 4 hr after OGD. In addition, the FGFR inhibitor, SU5402 (25 μM), was added together with FGLd in some of the set-ups.
(§4) In hippocampal neuronal cultures, FM 1-43 staining was used to evaluate pre-synaptic function (described above). Cell viability in both primary cell cultures and OHSC was measured using the […] [3-(4,5-dimethylthiazol-2-yl)-2,5-diphenyltetrazolium bromide] assay according to Malich et al, (1997) Toxicology. 124:179-92. In, addition, cell viability in OHSC was measured using propidium iodide (PI) staining according to Laake et al. (1999) Brain Res Brain Res Protoc. 4:173-84.

[6] = tested on: dissociated hippocampal neurons; test: OGD, FM 1-43 release in dissociated hippocampal cell cultures; format: cell-based, rat; conditions: together with FGLd
Source text: as §2, §3, §4

[7] = tested on: organotypic hippocampal neuronal slice cultures (OHSC); test: OGD, propidium iodide staining of OHSC; format: cell-based, rat; conditions: inhibitor together with FGLd
Source text: as §2, §3, §4

[8] = tested on: FGL-induced neurite outgrowth in CGN cultures; conditions: previously found; cited from earlier work
rat FGFR1 (IIIC isoform) = target: T1, rat FGFR1 (IIIC isoform) (Rattus norvegicus, UniProt Q04589); test: Phosphorylation of FGFR1 in transfected HEK293 cells; format: cell-based; conditions: 20 μg/ml; 20 min; HEK293 cells transfected with rat FGFR1
T1 construct: expressed in transfected cells; host or cells: HEK293 cells, transiently transfected with a pcDNA3.1(+) plasmid (Invitrogen)
T1 sequence (Q04589 22-822): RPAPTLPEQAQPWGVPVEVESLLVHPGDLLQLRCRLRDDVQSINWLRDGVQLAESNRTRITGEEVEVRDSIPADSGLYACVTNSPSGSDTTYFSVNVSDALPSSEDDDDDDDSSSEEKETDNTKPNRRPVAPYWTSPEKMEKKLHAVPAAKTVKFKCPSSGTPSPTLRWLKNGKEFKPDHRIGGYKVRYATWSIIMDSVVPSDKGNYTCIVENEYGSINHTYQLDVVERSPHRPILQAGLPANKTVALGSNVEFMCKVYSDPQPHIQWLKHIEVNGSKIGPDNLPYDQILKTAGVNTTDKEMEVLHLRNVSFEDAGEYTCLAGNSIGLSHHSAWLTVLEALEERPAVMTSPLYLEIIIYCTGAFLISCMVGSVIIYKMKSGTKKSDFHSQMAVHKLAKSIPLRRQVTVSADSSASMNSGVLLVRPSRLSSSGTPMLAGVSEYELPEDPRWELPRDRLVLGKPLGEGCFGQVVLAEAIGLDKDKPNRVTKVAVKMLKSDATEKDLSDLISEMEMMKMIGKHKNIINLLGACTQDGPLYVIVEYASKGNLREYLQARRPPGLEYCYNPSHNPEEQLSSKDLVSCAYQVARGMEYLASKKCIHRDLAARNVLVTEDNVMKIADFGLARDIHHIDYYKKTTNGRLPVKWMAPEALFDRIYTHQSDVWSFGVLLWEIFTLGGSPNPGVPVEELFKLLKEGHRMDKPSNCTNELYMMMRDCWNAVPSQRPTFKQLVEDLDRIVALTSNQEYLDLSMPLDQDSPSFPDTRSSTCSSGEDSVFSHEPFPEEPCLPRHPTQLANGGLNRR
Experimental: The EFL peptide is derived from the Fn 3, 2 module of NCAM and represents the E strand-loop-G strand part of the module. For the experiments the peptide was synthesised as described above. […] The peptide is also capable to bind and stimulate FGFR1 in cells expressing the receptor, wherein the peptide induces the receptor phosphorylation (at concentration 20 μg/ml by more then 300%). Phosphorylation of FGFR1 was studied using the following assay. […] Cells were grown for another 24 hrs in full medium, and then shifted to starvation media (DMEM 1965) overnight. FGFR transfected cells were stimulated for 20 min with the EFL monomer, lysed in 8M urea, 1 mM orthovanadate (in PBS) and purified from the lysate via the His-tag as follows: The lysate was loaded on Ni^2+/NTA-sepharose (Qiagen), washed with lysis buffer plus 10 mM imidazole, and the FGFR was eluted with lysis buffer plus 250 mM imidazole. The purified FGFR was analysed by immunoblotting using anti-pentahis (Qiagen) or anti-phosphotyrosine (PY20, Transduction Laboratories) antibodies. The bands were visualised by chemilumiscense and the band density was measured using a GeneGnome apparatus (SynGene).

[9] = tested on: cerebellar granule neurons (CGN); test: Survival of CGN induced to undergo apoptosis by low KCl; conditions: individual monomer; low KCl
Experimental: Cerebella granular meurons (CGN) (e and f) from postnatal day 7 rats were grown at a density of 100,000 cells/cm^2 for 7 days on poly-L-lysine coated microtiter plates in the medium containing 40 mM KCl, then the medium was substituted to a 5 mM KCl containing medium supplemented with various concentrations of FGLd.
For the experiments cerebellar tissue was dissected in modified Krebs-Ringer solution kept on ice, and treated as described for the hippocampal neurons above. All cell cultures were incubated at 37° C. in a humidified atmosphere containing 5% CO2.
Primary cultures of CGN were plated at a density of 100,000 cells/cm^2 on poly-L-lysine coated 8-well permanox slides in Neurobasal-A medium (Gibco, BRL) supplemented with 2% (v/v) B27, 0.5% (v/v) glutamax, 100 U/ml penicillin, 100 μg/ml streptomycin and KCl, making the final concentration of KCl in the medium 40 mM. 24 hours after plating, cytosine-β-D-arabinofuranoside (Ara-C; Sigma-Aldrich) was added to a final concentration of 10 μM to avoid proliferation of glial cells, after which the neurons were allowed to differentiate for further six days at 37° C. Apoptotic cell death was induced by washing twice and changing the medium to Basal Medium Eagle (BME; Gibco BRL) supplemented with 1% (v/v) glutamine, 100 U/ml penicillin and 100 μg/ml streptomycin, 3.5 g D-glucose/l and 1% (v/v) sodium pyruvate (Gibco BRL) together with various concentrations of peptide. Thereby the concentration of potassium in the cultures was reduced to 5 mM KCl. Two days after induction of apoptosis, the cells were fixed with 4% formaldehyde and stained with Hoechst 33258 as described for the survival assay employing hippocampal neurons.

Molecule: Cc1c[nH]c(/C=C2\C(=O)Nc3ccccc32)c1CCC(=O)O [SU5402]
- inhibition of FGLd-induced survival of CGN ([1]; 20 μM inhibitor): significantly inhibited the survival response to FGLd
- inhibition of FGLd-induced survival of CGN ([1]; 40 μM inhibitor): reduced the FGLd-induced survival to the survival rate of the untreated apoptosis-induced control neurons
- effect of FGFR inhibitor on FGLd-increased FM 1-43 destaining (hippocampal neurons [2]): abolished the effect of FGLd
- FGLd-induced neurite outgrowth in CGN in presence of inhibitor ([3]; 80 μM inhibitor, 27 μg/ml FGLd): 35%
- effect on neurite outgrowth in control CGN cultures not treated with FGLd ([3]; data not shown): without significant effect on neurite outgrowth
- block of EFL-stimulated neuritogenic activity by inhibitor of FGFR1 (hippocampal neurons [4]; with EFL peptide): specifically blocked
- metabolic activity after OGD, FGLd pretreatment with FGFR-inhibitor present [5]: did not diminish the OGD-induced reduction in metabolic activity
- effect of FGFR-inhibitor on FGLd action on OGD-induced decrease in FM 1-43 release [6]: abrogated the effect of FGLd
- PI staining after OGD, pre-incubation with FGFR-inhibitor together with FGLd [7]: the PI staining was similar to that of OGD alone

Molecule: COc1cccc(-c2cc(=O)c3ccccc3o2)c1N [PD98059]
- inhibition of FGLd-induced survival of CGN ([1]; 12.5 μM inhibitor): inhibited cell survival induced by FGLd to the level of the control cultures
- effect on basal neurite outgrowth in CGN [8]: not to affect the basal neurite outgrowth
- FGLd-induced neurite outgrowth in CGN in presence of inhibitor ([3]; inhibitor above 25 μM, 10 μg/ml FGLd): 75%

Molecule: NIEVWVEAENALGKKV (Interleukin-6 receptor beta chain [Swiss-Prot: Q00560]: FGFR binding motif) [EFL peptide]
- FGFR1 phosphorylation induced by the peptide (rat FGFR1 (IIIC isoform)): > 300%
- neurite outgrowth of rat hippocampal neurons (hippocampal neurons [4]; individual monomer): strongly stimulate neurite outgrowth
- survival of rat cerebellar neurons [9]: stimulate survival
